Assay results taken from patent publication US20110144077A1, “TREATMENT OF RETINAL DEGENERATION” (priority 2008, published 2011).
Entries after “also recorded” stand apart in the source; their conditions may differ.

Legend:
photoreceptor cells = experiment: Light damage model in vivo, TUNEL staining of ONL; design: species or system albino balb/c mice
Procedure: (§1) Apoptosis detection by Terminal deoxynucleotidyl transferase-mediated biotinylated UTP nick end labeling (TUNEL): Retinal explants were fixed in 10% neutral buffered formalin overnight at 4° C., followed by cryoprotection in 25% sucrose overnight at 4° C. Frozen sections (7 μm) were incubated with terminal deoxynucleotidyl transferase (MSC, Dublin, Republic of Ireland) and fluorescein-12-dUTP (Roche, Lewes, UK) according to manufacturers' instructions at 37° C. for 1 h. Sections were mounted and viewed under a fluorescence microscope (Leica DM LB2; Leica, Nussloch, Germany) using an FITC filter.
Light damage model: Balb/c mice were dark adapted for 18 h prior to exposure to constant light. Mice were injected intraperitoneally with 100 mg/kg of norgestrel 1 hour prior to light damage. Immediately prior to light exposure their pupils were dilated with 0.5% cyclopentolate under red light. Retinal light damage was induced by exposure to 2 h of cool white fluorescent light at an illumination of 5000 lux. Following exposure to constant light, animals were placed in the dark for 24 h then killed immediately by cervical dislocation.
TUNEL staining was performed as described above.

[1] = system: photoreceptor cells in the outer nuclear layer (ONL); experiment: rd10 model of chronic retinal degeneration; assay type: in vivo, rd10 mouse
Procedure: Peanut agglutinin (PNA) staining: Eyes were fixed in 10% neutral buffered formalin overnight at 4° C., followed by cryoprotection in 25% sucrose overnight at 4° C. Frozen sections (7 μm) were blocked with 0.1% bovine serum albumin (BSA) in 0.1% tween/PBS for 30 minutes at room temperature. Sections were incubated with rhodamine conjugated PNA (Invitrogen, Dun Laoghaire, Ireland) for 20 minutes at room temperature as per manufacturers' instructions. Sections were mounted and viewed under a fluorescence microscope (Leica DM LB2; Leica, Nussloch, Germany) using a TRITC filter. Immunofluorescence: Eyes were fixed in 10% neutral buffered formalin overnight at 4° C., followed by cryoprotection in 25% sucrose overnight at 4° C. Frozen sections (7 μm) were blocked with 0.1% bovine serum albumin (BSA) in 0.1% tween/PBS for 1 hour at room temperature. Sections were incubated with anti-rhodopsin antibody (LAB VISION Corporation, Fremont, Calif., USA) overnight at 4° C. Sections were washed and incubated with FITC conjugated secondary mouse antibody (Dako, Glostrup, Denmark) for 1 hour at room temperature. Following further washes, sections were mounted and viewed under a fluorescence microscope (Leica DM LB2; Leica, Nussloch, Germany) using a FITC filter. […] It is a better model of the slow progression of typical human autosomal recessive RP than the acute light model as photoreceptor cells are lost over a period of weeks rather than days. Loss of photoreceptors in the rd10 mouse begins at approximately 2 weeks of age, with the peak of photoreceptor death occurring at postnatal day (P) 25.

[2] = system: photoreceptor cells in the outer nuclear layer (ONL); experiment: Retinal explant culture, SNP induced apoptosis detected by TUNEL; assay type: cell-based, C57BL/6 mice
Procedure: Retinal explant culture: Eyes from postnatal day 10, C57BL/6 mice were removed and cleaned with 70% ethanol. The anterior segment, vitreous body, and sclera were removed and the retina mounted on Millicell nitrocellulose inserts (Millipore, Billerica, Mass.) photoreceptor-side down. Explants were cultured without retinal pigment epithelium (RPE) in 1.2 ml of R16 specialised media (from Dr. P. A. Ekstrom, Wallenberg Retina Centre, Lund University, Lund, Sweden) without additional serum. Treated explants were cultured in medium containing 300 μM of the nitric oxide donor SNP (sodium nitroprusside) for 24 h. Pre-treatment with norgestrel was for 1 hour.
as §1

[3] = compared to uninjected or vehicle injected controls

Question: With `C#CC1(O)CC[C@H]2[C@@H]3CCC4=CC(=O)CC[C@@H]4[C@H]3CC[C@@]21CC` (mixture of isomers) [norgestrel] as the compound, how does the “protection of photoreceptors from light induced retinal damage / apoptosis” value (photoreceptor cells; 100 mg/kg IP, 1 hour before 2 h light damage) read?
Answer: The value was “protects from the retinal damage observed; also recorded: Photoreceptors are protected”.

Question: And the “duration of protection after a single injection” value (photoreceptor cells; 100 mg/kg, single injection, post light damage)?
Answer: Its value is 72 h.

Question: What about the “protection from light induced cell death (TUNEL positive cells)” value (photoreceptor cells; central retina, 24 hours, 100 mg/kg) of the same compound?
Answer: Its value is “approx 70%”.

Question: And the “protection of layers of photoreceptor nuclei, central retina” value ([1]; 100 mg/kg IP every second day P18-P30, central retina)?
Answer: Its value is 1-2 layers.

Question: And the “protection of layers of photoreceptor nuclei, peripheral retina” value ([1]; 100 mg/kg IP every second day P18-P30, peripheral retina)?
Answer: The value was 4-5 layers.

Question: What about the “protection of layers of photoreceptor nuclei in the ONL, central retina” value ([1]; 100 mg/kg injected daily, P25, central retina) of the same compound?
Answer: The value was 3-4 layers.

Question: And the “protection of layers in the ONL, peripheral retina” value ([1]; 100 mg/kg injected daily, P25, peripheral retina)?
Answer: Its value is 3-4 layers.

Question: What about the “degeneration of central retina, photoreceptor nuclei remaining at P25 and P30 versus vehicle” value ([1]; central retina, P25 and P30) of the same compound?
Answer: The value was “degenerates more slowly”.

Question: And the “PNA staining (cone photoreceptors) in the ONL” value [1, 3]?
Answer: The value was “more cone cells are found”.

Question: What about the “rhodopsin immunofluorescent staining (rod photoreceptors) in the ONL” value [1, 3] of the same compound?
Answer: The value was “more rhodopsin positive cells remain”.

Question: And the “degeneration of peripheral retina between P25 and P30 versus vehicle” value ([1]; peripheral retina, P25 to P30)?
Answer: The value was “degeneration of the peripheral retina virtually ceases”.

Question: What about the “protection with injection every second day versus daily” value ([1]; rd10, P25, every second day compared with daily) of the same compound?
Answer: Its value is “equally as protected”.

Question: What about the “protection of photoreceptors from SNP induced apoptosis (TUNEL)” value ([2]; ex vivo retinal explants, 300 μM SNP for 24 h, 1 hour norgestrel pre-treatment, increasing concentrations) of the same compound?
Answer: The value was “protected from SNP induced apoptosis; also recorded: protects photoreceptive cells from SNP induced cell death”.

Question: And the “toxicity to retinal cells” value ([2]; retinal explants, norgestrel alone at the highest concentration used)?
Answer: Its value is “not toxic to retinal cells”.
